Source: patent US6864251B2, “Treatment of LTB4-mediated inflammatory disorders with optically-pure (R)-2,3-benzodiazepines” (Vela Pharmaceuticals, Inc., priority 2002, dated 2005)
Values joined by “and” are separate entries in the source; they are usually repeats but may differ in a detail not shown here. Equal entries are not always repeated.

Assays:
[1] = system: LTB4-induced dermal inflammation; assay: Rabbit model of LTB4-induced dermal inflammation, histopathology of intradermal challenge sites; format: in vivo, New Zealand White Rabbits; set-up: key to Inflammation score / Edema score: 0=normal; T=trace; 1=minimal; 2=mild; 3=moderate; 4=marked; conditions: test article IP 60 mg/kg (dexamethasone 0.5 mg/kg); for Edema score / Inflammation score: 4 hr after challenge
Experimental: Test compounds were prepared as follows. The vehicle was first prepared by dissolving […] of hydroxypropylmethylcellulose 2910 (HPMC)(Sigma Chemical, St. Louis, Mo.) in 50 mL of 0.9% saline to yield a concentration of 2% HPMC. The three test articles, (R)-, (S)- and racemic tofisopam, were formulated by adding 1 g of each test article to 10 mL of vehicle.
On Day 0, the rabbits were sedated with ketamine/xylazine (35/5 mg/kg, s.c.) and an area of approximately 8×14 cm on the back was closely and carefully clipped to expose the skin, but not inflame or otherwise damage the epithelium. A grid of ten squares each approximately 2.5×2.5 cm was drawn on each animal's back using an indelible marker. The animals were then dosed intraperitoneally with the appropriate test article corresponding to the group. Thirty minutes after dosing with test or control article, the animals were challenged intradermally with the LTB4 or LTB4-aminopropamide (LTB4-AP, a synthetic LTB4 agonist) in the appropriate site as shown in Table 4. Each injection site was marked with an indelible marker in order to identify the exact location of the intradermal injection site. Sixty minutes after challenge, the animals were treated again with tofisopam or control articles. The animals were sacrificed 4 hrs. after challenge, and the intradermal injection sites were excised, fixed in 10% neutral buffered formalin (NBF), and submitted for histopathology. H&E-stained sections were read by a board-certified veterinary pathologist using light microscopy.
All animals were sacrificed 4 hr after challenge. The intradermal challenge sites were excised, placed on unique cardboard squares, fixed in 10% NBF, and submitted for histopathology. The skin sections included the epidermis and the subcutis, down to the back musculature.
The marked skin sections were fixed for at least 48 hours on small cardboard squares. At gross trimming, three levels were cut through marked skin region in order to assure that the injection sites is brought into the plane of section. The skins were gross trimmed, processed by dehydration, embedded in paraffin, sectioned at 3-5 μm, and stained with hematoxylin and eosin.
The tissues were evaluated histopathologically via light microscopy by a board-certified veterinary pathologist. Initially, the identity of the slides was masked in order to perform the initial evaluation and rank the slides. The slides were then unmasked and there was a careful assessment of the lesions and careful comparison of the tofisopam-treated sites to the vehicle and positive control tissues. The lesions were graded based upon the degree of inflammation and the degree of edema. The severity of the inflammation and edema was keyed as follows: 0=normal; T=trace; 1=minimal; 2=mild; 3=moderate; 4=marked.

[2] = system: DSS-induced colitis; assay: Dextran sulfate sodium induced colitis: mouse model of inflammatory bowel disease; format: in vivo, Swiss Webster mice; conditions: for Mean DAI ± SEM: DSS 5% in tap water; for Mean DAI* ± SEM: DAI without weight loss parameter; for % of normal length: colon length
Experimental: In this model of colitis, an acute inflammation of the colon was produced by administration of dextran sulfate sodium (DSS) as a 5% solution in tap water. This colitis was characterized by histological events and an influx of neutrophils, macrophages and mediators of inflammation similar to those observed with human inflammatory bowel diseases. […] The following study was conducted in accordance with protocols of Okayasu et al., Gastroenterology, 98:694-702, 1990.
One hundred ten test animals (female, 6 week old Swiss Webster mice, 18-30 g) were divided into ten groups, selected to eliminate any statistical differences in mean group weight.
Each animal was dosed daily (IP) with either a test substance or vehicle, starting on Day 0. Beginning on Day 1, acute colon inflammation was induced by the administration ad libitum in drinking water of dextran sulfate sodium (DSS) as a 5% solution in tap water (10 mL/mouse/day for 5-6 days), with no other fluid source for animals in the DSS arm of the study. Filtered tap water was available ad libitum except for animals receiving 5% DSS as the sole source of fluid. After four days, signs of acute disease occured with the loss of weight, diarrhea and bloody stools. Histological changes included initial shortening of the crypts, then areas of separation of the crypts and the muscularis mucosae in the absence of destructive inflammatory filtrate. After five days, pathological changes became confluent with the appearance of erosions and early hyperplastic epithelium. Inflammation scores were high with neutrophils, lymphocytes, and plasma cells in the lamina propria but sparing the epithelium.
Test compounds were administered intraperitoneally (IP). Test compounds given during this period were evaluated for prophylactic activity and test compounds given after the disease state was established were evaluated for therapeutic activity.
Test animals were weighed daily from Day 0 to Day 8, or until completion of the study. The total duration of the study with DSS arm of the study was varied depending on the time progress of colitis. The condition of the test animals and consistency of stools was noted.
At the conclusion of the study, test animals were euthanized (CO2), a midline incision was made and a stool sample was obtained. The sample was placed on a slide and tested for occult blood (Quic-Cult™, Laboratory Diagnostics Co., Morganville, N.J.). Occult blood was determined by placing two drops of the reagent onto the sample and observing any color change. Occult blood presence was graded using a scoring protocol assigning a score of 0 for no color; 1 for a very light blue color (+/−) forming in >30 seconds; 2 for a blue color developing in 30 seconds or more (+); 3 for a change in color occurring in less than 30 seconds (++); and 4 for gross blood observable on the slide. The colon was gently stretched and the length from the colon-cecal junction to the end of the distal rectum was measured to the nearest 0.1 cm.
The scores for each test animal were added and then divided by three to give a DAI score for each animal.

Structure (SMILES): CC[C@H]1C(C)=NN=C(c2ccc(OC)c(OC)c2)c2cc(OC)c(OC)cc21 [(R)-tofisopam, (R)-1-(3,4-dimethoxyphenyl)-4-methyl-5-ethyl-7,8-dimethoxy-5H-2,3-benzodiazepine]
- Edema score ([1]; injection site: LTB4 500 ng): 1 and 3
- Inflammation score ([1]; injection site: LTB4 500 ng): 1
- Edema score ([1]; injection site: LTB4 1000 ng): 2 and 3
- Inflammation score ([1]; injection site: LTB4 1000 ng): 1 and 2
- Edema score ([1]; injection site: LTB4 2000 ng): 2 and 3
- Inflammation score ([1]; injection site: LTB4 2000 ng): 1-2 and 1
- Edema score ([1]; injection site: LTB-ap 500 ng): 1 and 3
- Inflammation score ([1]; injection site: LTB-ap 500 ng): 1
- Edema score ([1]; injection site: LTB-ap 1000 ng): 2 and 3
- Inflammation score ([1]; injection site: LTB-ap 1000 ng): 1 and 2
- Edema score ([1]; injection site: LTB-ap 2000 ng): 2 and 3 and 1
- Inflammation score ([1]; injection site: LTB-ap 2000 ng): 1 and 2
- Edema score ([1]; injection site: Vehicle 0 ng): 0 and 1 and 2
- Inflammation score ([1]; injection site: Vehicle 0 ng): 0 and 1
- Histopathology finding: reduction of inflammation and edema ([1]; summary in words): meaningful reduction in the severity of the inflammatory cell infiltration and less edema
- Mean colon length CM ± SEM ([2]; 16 mg/kg IP daily, DSS 5%): 9.0 ± 0.28 CM
- Mean DAI ± SEM ([2]; 16 mg/kg IP daily): 2.22 ± 0.34
- Mean weight ± SEM, Day 0 ([2]; 16 mg/kg IP daily, DSS 5%): 26.1 ± 0.5 g
- % weight change ± SEM, Day 8 ([2]; 16 mg/kg IP daily, DSS 5%): 0.0 ± 1.4%
- Mean weight ± SEM, Day 8 ([2]; 16 mg/kg IP daily, DSS 5%): 26.1 ± 0.6 g
- % weight change ± SEM, Day 9 ([2]; 16 mg/kg IP daily, DSS 5%): 3.3 ± 1.8%
- Mean weight ± SEM, Day 9 ([2]; 16 mg/kg IP daily, DSS 5%): 25.2 ± 0.6 g
- % weight change ± SEM, Day 10 ([2]; 16 mg/kg IP daily, DSS 5%): 5.4 ± 3.4%
- Mean weight ± SEM, Day 10 ([2]; 16 mg/kg IP daily, DSS 5%): 24.7 ± 1.0 g
- Mean colon length CM ± SEM ([2]; 32 mg/kg IP daily, DSS 5%): 8.9 ± 0.41 CM
- Mean DAI ± SEM ([2]; 32 mg/kg IP daily): 2.33 ± 0.28
- Mean weight ± SEM, Day 0 ([2]; 32 mg/kg IP daily, DSS 5%): 25.0 ± 0.4 g
- % weight change ± SEM, Day 8 ([2]; 32 mg/kg IP daily, DSS 5%): 0.8 ± 1.6%
- Mean weight ± SEM, Day 8 ([2]; 32 mg/kg IP daily, DSS 5%): 26.2 ± 0.4 g
- % weight change ± SEM, Day 9 ([2]; 32 mg/kg IP daily, DSS 5%): 1.9 ± 2.1%
- Mean weight ± SEM, Day 9 ([2]; 32 mg/kg IP daily, DSS 5%): 25.5 ± 0.6 g
- % weight change ± SEM, Day 10 ([2]; 32 mg/kg IP daily, DSS 5%): 4.4 ± 2.1%
- Mean weight ± SEM, Day 10 ([2]; 32 mg/kg IP daily, DSS 5%): 24.6 ± 0.6 g
- Protection from the LTB4-mediated inflammatory responses to DSS-induced colitis ([2]; 64 mg per kg, based on colon length and DAI): significant protection
- Mean colon length CM ± SEM ([2]; 64 mg/kg IP daily, DSS 5%): 9.8 ± 0.35 CM
- Mean DAI ± SEM ([2]; 64 mg/kg IP daily): 1.73 ± 0.27^1
- Mean weight ± SEM, Day 0 ([2]; 64 mg/kg IP daily, DSS 5%): 26.2 ± 0.5 g
- % weight change ± SEM, Day 8 ([2]; 64 mg/kg IP daily, DSS 5%): 0.1 ± 1.9%
- Mean weight ± SEM, Day 8 ([2]; 64 mg/kg IP daily, DSS 5%): 26.2 ± 0.5 g
- % weight change ± SEM, Day 9 ([2]; 64 mg/kg IP daily, DSS 5%): 2.9 ± 1.9%
- Mean weight ± SEM, Day 9 ([2]; 64 mg/kg IP daily, DSS 5%): 25.4 ± 0.5 g
- % weight change ± SEM, Day 10 ([2]; 64 mg/kg IP daily, DSS 5%): 2.8 ± 2.5%
- Mean weight ± SEM, Day 10 ([2]; 64 mg/kg IP daily, DSS 5%): 25.4 ± 0.5 g
- Mean DAI* ± SEM ([2]; 16 mg/kg IP daily, DSS 5%): 2.61 ± 0.37
- Mean DAI* ± SEM ([2]; 32 mg/kg IP daily, DSS 5%): 2.75 ± 0.26
- Mean DAI* ± SEM ([2]; 64 mg/kg IP daily, DSS 5%): 2.20 ± 0.26^1
- inhibition at 16 mg/kg ([2]; Mus musculus, 16 mg/kg IP daily, DSS 5%, read-out: Colon shortening inhib. %): 24%
- inhibition at 32 mg/kg ([2]; Mus musculus, 32 mg/kg IP daily, DSS 5%, read-out: Colon shortening inhib. %): 22%
- inhibition at 64 mg/kg ([2]; Mus musculus, 64 mg/kg IP daily, DSS 5%, read-out: Colon shortening inhib. %): 41%
- % of normal length ([2]; 16 mg/kg IP daily, DSS 5%): 72.4%
- % of normal length ([2]; 32 mg/kg IP daily, DSS 5%): 71.3%
- % of normal length ([2]; 64 mg/kg IP daily, DSS 5%): 78.5%
